The results in this text go back to PMC4377892, “Gastroprotective Efficacy and Safety Evaluation of Scoparone Derivatives on Experimentally Induced Gastric Lesions in Rodents” (Nutrients, 2015).

For data set [1], the system named is HCl/ethanol-induced gastric ulcers. Nature of the data set: HCl/ethanol-induced gastritis in rats. In kind it is in vivo, Sprague-Dawley (S.D.) rats. Particulars: HCl/ethanol-induced GU; for ED50: Rattus norvegicus, oral, dose-response, rats, read-out: ED50 (50% protection against GU). The protocol: The male S.D. rats were fasted for 24 h prior to oral dosing with the normal saline (vehicle), rebamipide (a positive control), or test compounds (Figure 1) at a range of doses, which are described in the results. One hour after the treatments, all animals orally received 0.5 mL of a mixture of 0.15 M HCl and 60% ethanol solution. Animals were sacrificed by cervical dislocation 3 h after the administration of HCl/ethanol solution, the stomach was removed and fixed in 4% formalin solution for 1 h, opened along the greater curvature, and photographed using a camera attached to a dissection microscope. Total area (mm^2) of mucosal erosive lesion was measured using Photoshop CS4 Extended (Adobe, San Jose, CA, USA) software. The percentage of ulcer inhibition by test compounds was calculated by the following formula: % protection of ulceration = ((%Uarea vehicle treated ulcer control–%Uarea compound treated)/%Uarea vehicle treated ulcer control) × 100(1) where %Uarea is the percent ulcer area of the total gastric mucosa area. ED50 values (50% protection against GU) were calculated from the dose-response curves of logarithmic plots of each test compound.

The target in the next data set is CYP3A4 (Homo sapiens, UniProt P08684). As to the kind of experiment: in vitro. Particulars: recombinant enzyme. The method, then:
(§1) The inhibition assays for human cytochrome P450 (CYP) enzyme activities were performed in multiwall plates using CYP2C9 and CYP3A4 screening kits (Invitrogen Co., Carlsbad, CA, USA) according to the manufacturer’s instruction. The test compounds Ketoconazole (a positive inhibition control for CYP3A4) or Sulfaphenazole (a positive inhibition control for CYP2C9) were mixed with each master pre-mix comprising CYP2C9 or CYP3A4 BACULOSOMES® reagent and the regeneration system, which contained glucose-6-phosphate and glucose-6-phosphate dehydrogenase. The mixture was incubated at room temperature for 20 min. Following incubation, a CYP enzyme-specific substrate (Vivid BOMCC) and NADP^+ were added and the mixture was incubated at room temperature for 30 min. The reaction was stopped by the addition of a Stop Reagent (CYP450 isozyme specific inhibitors). CYP activity was evaluated by measuring the fluorescence of the fluorescent metabolite generated from each CYP enzyme-specific substrate. The fluorescence was measured using a fluorescent plate reader at 409 nm (excitation) and 460 nm (emission). All experiments were performed in duplicate, and the results are expressed as percent inhibition.

The target of a further data set is CYP2C9 (Homo sapiens, UniProt P11712). As to the kind of experiment: in vitro. The protocol:
as §1

Data set [2] concerns indomethacin-induced gastric ulcers. Nature of the data set: Indomethacin-induced gastritis in rats. It is filed as in vivo, Sprague-Dawley (S.D.) rats. Particulars: for gastroprotective activity (in words): oral 40 mg/kg, indomethacin-induced GU, rats; for GU reversal: stated for both HCl/ethanol- and indomethacin-induced GU. The protocol: The male S.D. rats were fasted for 24 h prior to oral dosing with normal saline, rebamipide, or test compounds at a dose of 40 mg/kg body weight. One hour after treatment, all animals orally received 0.5 mL indomethacin solution (80 mg/kg body weight, suspended in 5% sodium bicarbonate). Animals were sacrificed by cervical dislocation 6 h after the administration of indomethacin solution, the stomach was removed and fixed in 2% formalin solution for 30 min, opened along the greater curvature, and photographed using a camera attached to a dissection microscope. Total area (mm^2) of mucosal erosive lesion was measured and the % protection was calculated as described above.

The next data set has as its system adherent gastric mucus. Nature of the data set: Measurement of adherent gastric mucus (alcian blue) in HCl/ethanol-treated rats. In kind it is in vivo, Sprague-Dawley (S.D.) rats. Particulars: 20 mg/kg body weight oral, 1 h before HCl/ethanol, mean ± SEM n = 6. The protocol: The male S.D. rats were fasted for 24 h prior to oral dosing with normal saline, rebamipide, or test compounds at a dose of 20 mg/kg body weight. One hour after the treatments, all animals orally received 0.5 mL of a mixture of 0.15 M HCl and 60% ethanol solution. Animals were sacrificed by cervical dislocation 3 h after the administration of HCl/ethanol solution, the stomach was removed, and parts of the stomach mucosa were rinsed with ice-cold 0.25 M sucrose. Measurement of adherent gastric mucosal mucus was assayed using alcian blue, a dye which stains acid mucosubstances, as previously described. In brief, a 100 mm^2 portion of the glandular region of the stomach was excised with a scalpel, and soaked in 0.1% alcian blue dissolved in 0.16 M of sucrose buffered with 0.05 M sodium acetate (pH 5.8) for 2 h. The unbound dye was removed using two successive washes with 0.25 M sucrose. The dye complex with mucus was extracted using 30% docusate sodium salt for 2 h. After centrifugation at 2600× g for 10 min, the optical density of the alcian blue solution was measured at 620 nm and calculated using the calibration curve. The adherent gastric mucosal mucus was expressed as the amount of the alcian blue (μg/g tissue).

A further data set has as its system ICR mice. Nature of the data set: Acute oral toxicity in mice. Particulars: for Mortality / Relative Organ Weight, Heart / Relative Organ Weight, Kidney / Relative Organ Weight, Liver / Relative Organ Weight, Lung / Relative Organ Weight, Spleen / alteration in body weight vs vehicle control (in words): single oral 1000 mg/kg, 14 days; for Mortality: deaths/animals; for Relative Organ Weight, Heart / Relative Organ Weight, Kidney / Relative Organ Weight, Liver / Relative Organ Weight, Lung / Relative Organ Weight, Spleen: mean ± SEM n = 10; for LD50: oral, Probit method; for alteration in body weight vs vehicle control (in words): male and female ICR mice; for acute toxicity (in words): single oral administration 1000 mg/kg body weight, ICR mice. In kind it is in vivo. The method, then: Acute toxicity studies were performed both in male and female ICR mice as described previously. Vehicle control and test compound treated groups consisted of 10 animals each. Mice were acclimatized for 7 days before experimentation. Before dosing with test compounds, animals were fasted for 24 h with access to adequate drinking water in cases with wire mesh bottoms, to prevent coprophagy. The treated group received test compounds, and the control group received saline by gavage at a dose of 1000 mg/kg body weight. […] The mortality, body measurements, and behavior were assessed and recorded daily for 14 days after treatment. The macroscopic analyses and weight of vital organs, such as the liver, kidney, spleen, lung, and heart were compared between the animals treated with test compounds and vehicle.

Setting [3] is: single oral dose 40 mg/kg body weight, S.D. rats.

Sequence of CYP2C9 (P11712 whole entry): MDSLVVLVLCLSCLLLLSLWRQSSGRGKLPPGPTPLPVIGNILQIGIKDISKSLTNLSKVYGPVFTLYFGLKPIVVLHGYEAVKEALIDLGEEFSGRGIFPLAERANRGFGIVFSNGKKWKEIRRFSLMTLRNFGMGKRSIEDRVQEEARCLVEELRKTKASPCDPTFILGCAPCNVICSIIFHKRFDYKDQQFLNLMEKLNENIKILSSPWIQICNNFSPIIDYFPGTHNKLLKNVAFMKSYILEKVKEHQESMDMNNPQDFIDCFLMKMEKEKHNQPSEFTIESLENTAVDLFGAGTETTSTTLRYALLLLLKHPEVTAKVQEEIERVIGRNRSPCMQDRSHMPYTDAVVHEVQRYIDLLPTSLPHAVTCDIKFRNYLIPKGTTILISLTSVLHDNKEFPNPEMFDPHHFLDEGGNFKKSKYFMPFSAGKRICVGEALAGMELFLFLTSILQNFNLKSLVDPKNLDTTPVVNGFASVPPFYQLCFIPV
Sequence of CYP3A4 (P08684 whole entry): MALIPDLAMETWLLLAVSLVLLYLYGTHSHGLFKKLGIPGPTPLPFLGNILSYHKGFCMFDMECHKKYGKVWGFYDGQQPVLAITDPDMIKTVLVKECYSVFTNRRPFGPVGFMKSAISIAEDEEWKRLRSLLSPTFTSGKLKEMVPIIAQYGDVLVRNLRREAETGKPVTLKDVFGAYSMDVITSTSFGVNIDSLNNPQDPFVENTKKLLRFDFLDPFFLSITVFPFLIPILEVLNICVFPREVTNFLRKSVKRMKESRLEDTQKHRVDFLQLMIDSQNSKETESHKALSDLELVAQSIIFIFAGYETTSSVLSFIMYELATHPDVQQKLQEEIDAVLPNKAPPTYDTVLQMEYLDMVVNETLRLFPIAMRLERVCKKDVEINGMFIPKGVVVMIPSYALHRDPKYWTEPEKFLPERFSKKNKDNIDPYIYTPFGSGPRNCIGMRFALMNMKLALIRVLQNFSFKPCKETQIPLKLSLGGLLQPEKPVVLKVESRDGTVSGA

Take `COc1cc2ccc(=O)oc2cc1OC` [Compound 1, 6,7-dimethoxycoumarin]: the ED50 in data set [1] came to 4.21 mg/kg. The “gastroprotective activity (in words)” value is given as “significantly protected” in data set [1] (setting [3]) and “effectively inhibited” in data set [2]. In addition, the inhibition at 30 min, 10 µM was 32.7% on CYP3A4 and 0% on CYP2C9 (recombinant enzyme).
Turning to `COc1cc2ccc(=O)oc2c(OC)c1OC` [Compound 3, 6,7,8-trimethoxycoumarin], the ED50 in data set [1] was 2.93 mg/kg. For the same compound, in data set [1] (setting [3]), the “protection rate (gastric lesion)” value worked out at 95.8%. The “Adherent Mucus” value with adherent gastric mucus came to 1876 ± 51 μg alcian blue/g tissue. Further, the inhibition at 30 min, 10 µM on CYP3A4 came out at 15.8%. Moreover, on CYP2C9 (recombinant enzyme), the inhibition at 30 min, 10 µM came to 0%. Moreover, in data set [2], the “gastroprotective activity (in words)” value was “effectively inhibited” and the GU reversal result is “over 90%”. Besides, in the data set with ICR mice (female mice), the Mortality is recorded as 0/10; the “Relative Organ Weight, Heart” value turned out to be 0.54 ± 0.05 % body weight; the “Relative Organ Weight, Kidney” value turned out to be 1.34 ± 0.05 % body weight; the “Relative Organ Weight, Liver” value was 6.86 ± 0.78 % body weight. Besides, in the data set on ICR mice (female mice), the “Relative Organ Weight, Lung” value turned out to be 0.79 ± 0.06 % body weight and the “Relative Organ Weight, Spleen” value stood at 0.48 ± 0.10 % body weight. For the same compound, in the data set on ICR mice (male mice), the Mortality is 0/10; the “Relative Organ Weight, Heart” value stood at 0.50 ± 0.02 % body weight; the “Relative Organ Weight, Kidney” value is recorded as 1.58 ± 0.06 % body weight; the “Relative Organ Weight, Liver” value stood at 4.92 ± 0.24 % body weight. In addition, in the data set with ICR mice (male mice), the “Relative Organ Weight, Lung” value worked out at 0.69 ± 0.06 % body weight and the “Relative Organ Weight, Spleen” value stood at 0.40 ± 0.07 % body weight. This compound also yielded an LD50 with ICR mice (female ICR mice) of 3500 mg/kg body weight. The LD50 in the data set on ICR mice (male ICR mice) came out at 2111 mg/kg body weight. In the data set with ICR mice, the “alteration in body weight vs vehicle control (in words)” value is “no significant alteration” and the “acute toxicity (in words)” value is listed as “no toxicity”.
`COC1Oc2cc3ccc(=O)oc3cc2O1` (stereo not shown) [Compound 7, 6,7-(1-Methoxy)methylenedioxycoumarin] came in with a melting point of 205 to 206 °C.
For `COc1cc2oc(=O)ccc2c(OC)c1OC` [Compound 2, 5,6,7-Trimethoxycoumarin], the ED50 in data set [1] came out at 3.94 mg/kg. For the same compound, the “protection rate (gastric lesion)” value in data set [1] (setting [3]) was determined as 90.0%. In addition, the “Adherent Mucus” value in the data set with adherent gastric mucus came out at 1424 ± 83 μg alcian blue/g tissue. At CYP3A4, the inhibition at 30 min, 10 µM came to 19.1%. Besides, the inhibition at 30 min, 10 µM at CYP2C9 (recombinant CYP2C9 BACULOSOMES, probe Vivid BOMCC) is 0%. Besides, in data set [2], the “gastroprotective activity (in words)” value is “effectively inhibited” and the GU reversal result is listed as “over 90%”. Further, in the data set on ICR mice (female mice), the Mortality is on record as 0/10; the “Relative Organ Weight, Heart” value turned out to be 0.47 ± 0.05 % body weight; the “Relative Organ Weight, Kidney” value is recorded as 1.22 ± 0.09 % body weight; the “Relative Organ Weight, Liver” value came to 4.21 ± 0.64 % body weight. Besides, in the data set with ICR mice (female mice), the “Relative Organ Weight, Lung” value turned out to be 0.69 ± 0.07 % body weight and the “Relative Organ Weight, Spleen” value came out at 0.45 ± 0.09 % body weight. Moreover, in the data set with ICR mice (male mice), the Mortality is given as 0/10; the “Relative Organ Weight, Heart” value was 0.46 ± 0.07 % body weight; the “Relative Organ Weight, Kidney” value worked out at 1.56 ± 0.05 % body weight; the “Relative Organ Weight, Liver” value was found to be 5.84 ± 0.23 % body weight. In addition, in the data set on ICR mice (male mice), the “Relative Organ Weight, Lung” value was found to be 0.68 ± 0.05 % body weight and the “Relative Organ Weight, Spleen” value is 0.36 ± 0.08 % body weight. The compound also gave an LD50 in the data set on ICR mice (female ICR mice) of 3857 mg/kg body weight. The compound also returned an LD50 with ICR mice (male ICR mice) of 3812 mg/kg body weight. In the data set on ICR mice, the “alteration in body weight vs vehicle control (in words)” value was “no significant alteration” and the “acute toxicity (in words)” value is on record as “no toxicity”.
`COc1cc2ccc(=O)oc2c2c1OC(OC)O2` (stereo not shown) [Compound 5, 6-Methoxy-7,8-(1-methoxy)methylenedioxycoumarin] gave a melting point of 202 to 203 °C.
On to `Nc1ccc(S(=O)(=O)Nc2ccnn2-c2ccccc2)cc1` [Sulfaphenazole, reference compound], for which the values for the inhibition at 30 min, 20 µM on CYP3A4 and on CYP2C9 (recombinant enzyme) were 0% and 93.4%, respectively.
Take `COc1cc2ccc(=O)oc2c2c1OCO2` [Compound 4, 6-methoxy-7,8-methylenedioxycoumarin]: the melting point was in the range of 220 to 221 °C. Further, in data set [1] (setting [3]), the “protection rate (gastric lesion)” value came to 93.1%. The “gastroprotective activity (in words)” value in data set [2] is on record as “equipotent gastroprotective activity that of rebamipide”.
Regarding `O=C(NC(Cc1cc(=O)[nH]c2ccccc12)C(=O)O)c1ccc(Cl)cc1` (stereo not shown) [Rebamipide, reference compound], the ED50 in data set [1] worked out at 9.53 mg/kg. Further, the “protection rate (gastric lesion)” value in data set [1] (setting [3]) is listed as 57.8%. Also, in the data set on adherent gastric mucus, the “Adherent Mucus” value is 1584 ± 80 μg alcian blue/g tissue.
For the compound `O=c1ccc2cc3c(cc2o1)OCO3` [Compound 6, 6,7-Methylenedioxycomarin], the melting point is 230 to 231 °C.
On to `CC(=O)N1CCN(c2ccc(OCC3COC(Cn4ccnc4)(c4ccc(Cl)cc4Cl)O3)cc2)CC1` (stereo not shown) [Ketoconazole, reference compound], for which the inhibition at 30 min, 20 µM at CYP3A4 was found to be 97.5%; at CYP2C9 (recombinant enzyme), 0%.
